Assay results from ChEMBL document CHEMBL1142600, “Production of justicidin B, a cytotoxic arylnaphthalene lignan from genetically transformed root cultures of Linum leonii” (J Nat Prod, 2006).

Tests used:
Format in all cases: functional, cell-based
LAMA-84 = assay: Cytotoxicity against human LAMA-84 cells after 72 hrs by MTT assay; conditions: LAMA-84, 72 h
K562 = assay: Cytotoxicity against human K-562 cells after 72 hrs by MTT assay; conditions: K562, 72 h
[1] = Cytotoxicity against human SKW3 cells after 72 hrs by MTT assay; conditions: SKW3, 72 h

COc1cc([C@@H]2c3cc4c(cc3[C@@H](O[C@@H]3O[C@@H]5CO[C@@H](C)O[C@H]5[C@H](O)[C@H]3O)[C@H]3COC(=O)[C@H]23)OCO4)cc(OC)c1O [ETOPOSIDE]
IC50 (LAMA-84): 790 nM
IC50 (K562): 1870 nM
IC50 [1]: 820 nM
